The assay has as its target T1, Axl (Homo sapiens, UniProt P30530).
T1 construct: endogenous in cells; host or cells: HeLa cells
T1 sequence (P30530 26-894): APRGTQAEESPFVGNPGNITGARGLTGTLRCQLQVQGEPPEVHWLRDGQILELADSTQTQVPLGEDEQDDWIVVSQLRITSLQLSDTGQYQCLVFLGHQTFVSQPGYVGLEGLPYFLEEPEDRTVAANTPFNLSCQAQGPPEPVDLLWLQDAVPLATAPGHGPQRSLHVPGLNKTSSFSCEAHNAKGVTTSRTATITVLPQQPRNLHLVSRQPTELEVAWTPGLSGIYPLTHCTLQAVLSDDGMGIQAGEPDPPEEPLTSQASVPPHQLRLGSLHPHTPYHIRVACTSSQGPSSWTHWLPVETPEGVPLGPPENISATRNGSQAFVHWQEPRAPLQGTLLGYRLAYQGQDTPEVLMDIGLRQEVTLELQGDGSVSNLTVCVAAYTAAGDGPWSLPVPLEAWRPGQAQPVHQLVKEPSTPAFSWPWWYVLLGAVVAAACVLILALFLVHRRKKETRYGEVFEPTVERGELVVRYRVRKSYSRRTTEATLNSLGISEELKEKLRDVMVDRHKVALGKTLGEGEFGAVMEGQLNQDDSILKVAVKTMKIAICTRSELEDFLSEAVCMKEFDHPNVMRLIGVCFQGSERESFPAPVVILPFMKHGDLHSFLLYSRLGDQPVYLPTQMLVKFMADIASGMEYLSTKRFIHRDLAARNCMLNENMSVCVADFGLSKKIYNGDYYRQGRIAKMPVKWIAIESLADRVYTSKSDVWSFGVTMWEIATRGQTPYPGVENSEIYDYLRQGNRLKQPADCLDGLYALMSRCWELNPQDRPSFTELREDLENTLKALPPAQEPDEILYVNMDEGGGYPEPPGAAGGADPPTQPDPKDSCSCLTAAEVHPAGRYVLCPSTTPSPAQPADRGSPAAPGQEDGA
Nature of the assay: Phospho-Akt in-cell Western assay (inhibition of Axl activity). The class given is cell-based. The method, then: The compounds of the invention were tested in the following assay for their ability to inhibit Axl activity.
Phospho-Akt in-Cell Western Assay
• Cell culture plate: 96 well assay plate (Corning 3610), white, clear bottom, tissue-culture treated. • Cells: Hela cells. • Starvation medium: For Axl stimulation: 0.5% FCS (fetal calf serum) in DMEM, plus Axl/Fc (extracellular domain of AXL fused to immunoglobulin Fc region) (R&D, 154-AL) 500 ng/mL. • For EGF (epidermal growth factor) stimulation: 0.5% FCS in DMEM (Dulbecco's modified Eagles medium). • Poly-L-Lysine 0.01% solution (the working solution): 10 μg/ml, dilute In PBS (phosphate buffered saline). • Axl antibody cross-linking: • 1st: Mouse anti-Axl (R&D, MAB154). • 2nd: Biotin-SP-conjugated AffiniPure goat anti-mouse IgG (H+L) (Jackson ImmunoResearch #115-065-003). • Fixing buffer: 4% formaldehyde in PBS. • Wash buffer: 0.1% TritonX-100 in PBS. • Quenching buffer: 3% H2O2, 0.1% Azide in wash buffer, Azide and hydrogen peroxide (H2O2) are added fresh. • Blocking buffer: 5% BSA in TBST (tris buffered saline plus 0.1% Tween 20). • Primary antibody: Rabbit anti-human Phospho-Akt antibody (Cell Signaling 9271): 1×250 diluted in blocking buffer. • Secondary antibody: HRP (horse radish peroxidase)-conjugated Goat anti-Rabbit secondary, stock solution: Jackson ImmunoResearch (Goat anti-Rabbit HRP, #111-035-144) 1:1 diluted in glycerol, store at −20° C. The working solution: 1×2000 dilution of stock in blocking buffer. • Chemiluminescent working solution (Pierce, 37030): SuperSignal ELISA (enzyme linked immunosorbant assay) Pico Chemiluminescent substrate. • Crystal Violet solution: Stock: 2.5% Crystal violet in methanol, filtered and kept at ambient temperature. The working solution: dilute the stock 1:20 with PBS immediately before use. • 10% SDS: working solution: 5% SDS (sodium dodecylsulfate), diluted in PBS Methods: Day 1:
A 96 well TC (tissue culture treated) plate was coated with 10 μg/mL poly-L-Lysine at 37° C. for 30 min, washed twice with PBS, and air-dried for 5 minutes before cells were added. Hela cells were seeded at 10,000 cells/well and the cells were starved in 100 μL starvation medium containing Axl/Fc for 24 hrs.
The cells were pre-treated with test compounds by adding 100 μL of 2× test compound to the starvation medium on the cells. The cells were incubated at 37° C. for 1 hr before stimulation.
The cells were stimulated by Axl-antibody cross-linking as follows: A 5×1st/2nd Axl antibody mixture was made (37.5 μg/mL 1st/100 μg/mL 2nd) in starvation medium and nutated at 4° C. with thorough mixing for 1-2 hours for clustering. The resulting mix was warmed to 37° C. 50 μL of 5× Axl 1st/2nd of antibody cluster was added to the cells and the cells were incubated at 37° C. for 5 min.
After 5 minutes stimulation, the plate was flicked to remove medium and the plate was tapped onto paper towels. Formaldehyde (4.0% in PBS, 100 μL) was added to fix the cells and the cells were incubated at ambient temperature for 20 min without shaking.
The cells were washed with a plate washer buffer to remove the formaldehyde solution. The plate was flicked to removed excess wash buffer and tapped onto paper towels. Quenching buffer (100 μL) was added to each well and the cells were incubated at ambient temperature for 20 minutes without shaking.
The cells were washed with a plate washer buffer to remove the quenching buffer. Blocking buffer (100 μL) was added and the cells were incubated at ambient temperature for at least an hour with gentle shaking.
The cells were washed with a plate washer buffer and diluted primary antibody (50 μL) was added to each well (blocking buffer was added to the negative control wells instead). The plates were incubated overnight at 4° C. with gentle shaking.
The wash buffer was removed, diluted secondary antibody (100 μL) was added, and the cells were incubated at ambient temperature for 1 hour with gentle shaking. […]

The mark [1] stands for this setting: inhibition of Axl activity, Table 1.
[2] abbreviates: inhibition of Axl activity, phospho-Akt in-cell Western assay, Table 1.
The mark [3] stands for this setting: Table 5, Hela cells, Axl antibody cross-linking stimulation, phospho-Akt chemiluminescence.

pIC50: −log10 of the molar value.

Take `Nc1nc(Nc2ccc3c(c2)OCCO3)nn1C(=O)c1cccc(OCC(F)(F)F)c1` [compound 228, 5-amino-3-(1,4-benzodioxan-6-yl)amino-1-(3-(2,2,2-trifluoroethoxy)phenyl)carbonyl-1H-1,2,4-triazole]: the pIC50 (commonly the negative decadic logarithm of the IC50, by convention in mol/L) under setting [1] was < 4.70. Turning to `Nc1nc(Nc2ccc(OCCN3CCCC3)cc2)nn1C(=O)c1cccc(-c2cccs2)c1` [compound 313, 5-amino-1-(3-(thien-2-yl)phenyl)carbonyl-3-[4-[2-(pyrrolidin-1-yl)ethoxy]phenylamino]-1H-1,2,4-triazole], the pIC50 under setting [2] was > 6.00. In turn, `CC(C)Oc1ccc(C(=O)n2nc(Nc3cccc(OC(C)C)c3)nc2N)cc1` [compound 122, 5-amino-3-[3-(iso-propoxy)phenylamino]-1-(4-(iso-propoxy)phenyl)carbonyl-1H-1,2,4-triazole] gave a pIC50 under setting [1] of 5.00 to 6.00. The same measure, in the same setting: the result for `NC(=O)COc1cccc(C(=O)n2nc(Nc3ccc4c(c3)OCCO4)nc2N)c1` [compound 231, 5-amino-1-(3-aminocarbonylmethoxy)phenylcarbonyl-3-(1,4-benzodioxan-6-yl)amino-1H-1,2,4-triazole] reads < 4.70.

Consider `CC(C)(C)Oc1ccc(C(=O)n2nc(Nc3ccc(N4CCCC4)cc3)nc2N)cc1` [compound 291, 5-amino-1-(4-(tert-butoxy)phenyl)carbonyl-3-[4-(pyrrolidin-1-yl)phenylamino]-1H-1,2,4-triazole], for which, under setting [2], the pIC50 was < 4.70.

With `CC(C)Oc1ccc(C(=O)n2nc(Nc3ccc(OCCN4CCCC4)c(F)c3)nc2N)cc1` [compound 307, 5-amino-1-(4-(iso-propoxy)phenyl)carbonyl-3-[3-fluoro-4-[2-(pyrrolidin-1-yl)ethoxy]phenylamino]-1H-1,2,4-triazole], the negative logarithm of the IC50 (pIC50) under setting [2] was > 6.00. In turn, `Nc1nc(Nc2ccc(Br)cc2)nn1C(=O)c1ccc(Cl)cc1` [compound 218, 5-amino-3-(4-bromophenyl)amino-1-(4-chlorophenyl)carbonyl-1H-1,2,4-triazole] gave a pIC50 under setting [1] of 5.00 to 6.00. Take `CN1CCN(c2ccc(Nc3nc(N)n(C(=O)c4cccc(OC(C)(C)C)c4)n3)cc2)CC1` [compound 358, 5-amino-1-(3-(tert-butoxy)phenyl)carbonyl-3-[4-(4-methylpiperazin-1-yl)phenylamino]-1H-1,2,4-triazole]: the pIC50 under setting [2] is > 6.00. Regarding `Cc1ccc(C(=O)n2nc(Nc3ccc4c(c3)OCCO4)nc2N)cc1C` [compound 234, 5-amino-1-(3,4-dimethylphenyl)carbonyl-3-(1,4-benzodioxan-6-yl)amino-1H-1,2,4-triazole], under setting [1], the negative-log IC50 (pIC50) was 5.00 to 6.00. Still for that read-out and setting: next, `Cc1cccc(C(=O)n2nc(Nc3cccc(OCC(=O)O)c3)nc2N)c1` [compound 224, 5-amino-3-(3-hydroxycarbonylmethoxy)phenylamino-1-(3-methylphenyl)carbonyl-1H-1,2,4-triazole]: < 4.70. For `Cc1cccc(C(=O)n2nc(Nc3ccc4c(c3)NC(=O)CO4)nc2N)c1` [compound 161, 5-amino-3-(benzo[b][1,4]oxazin-3(4H)-on-6-yl)amino-1-(3-(methyl)phenyl)carbonyl-1H-1,2,4-triazole], the pIC50 under setting [3] was < 4.70. Consider `CC(C)Oc1ccc(C(=O)n2nc(Nc3ccc(OCCN4CCCCC4)cc3)nc2N)cc1` [compound 163], for which the negative logarithm of the IC50 (pIC50) under setting [1] was > 6.00. Take `Nc1nc(Nc2ccc(OCCN3CCCC3)cc2)nn1C(=O)c1ccc(OCCN2CCOCC2)cc1` [compound 332, 5-amino-1-[4-(2-(morpholin-4-yl)ethoxy)phenyl]carbonyl-3-[4-[2-(pyrrolidin-1-yl)ethoxy]phenylamino]-1H-1,2,4-triazole]: the negative-log IC50 (pIC50) under setting [2] was > 6.00. Consider `Nc1nc(Nc2ccc(OCCN3CCCCC3)cc2)n(C(=O)NC2CCCC2)n1` [compound 190, 3-amino-N-cyclopentyl-5-[4-[2-(piperidin-1-yl)ethoxy]phenylamino]-1H-1,2,4-triazole-1-carboxamide], for which the pIC50 (Table 8, Hela cells, Axl antibody cross-linking stimulation, phospho-Akt chemiluminescence) was < 4.70.

`CN(C)c1cccc(C(=O)n2nc(NC3C4C=CC(C4)C3C(N)=O)nc2N)c1` (stereo not drawn) [compound 352, 5-amino-1-(3-(dimethylamino)phenyl)carbonyl-3-[(5-(aminocarbonyl)bicyclo[2.2.1]hept-2-en-6-yl)amino]-1H-1,2,4-triazole]: the pIC50 under setting [3] is < 4.70. With `Cc1cccc(C(=O)n2nc(Nc3ccc4nn(C)cc4c3)nc2N)c1` [compound 222, 5-amino-3-(2-methyl-2H-indazol-5yl)amino-1-(3-methylphenyl)carbonyl-1H-1,2,4-triazole], the pIC50 under setting [3] is < 4.70.

`CC(C)Oc1ccc(C(=O)n2nc(N)nc2Nc2ccc(N3CCCC3)cc2)cc1` [compound 294, 3-amino-1-(4-(iso-propoxy)phenyl)carbonyl-5-(4-(pyrrolidin-1-yl)phenylamino]-1H-1,2,4-triazole]: the negative logarithm of the IC50 (pIC50) (Table 2, Hela cells, Axl antibody cross-linking stimulation, phospho-Akt chemiluminescence) is < 4.70.

For the molecule `Nc1nc(Nc2ccc(OCCN3CCCC3)c(Cl)c2)nn1C(=O)c1cc(Cl)cc(Cl)c1` [compound 402, 5-amino-3-[3-chloro-4-[2-(pyrrolidin-1-yl)ethoxy]phenylamino]-1-(3,5-dichlorophenyl)carbonyl-1H-1,2,4-triazole], the pIC50 under setting [2] is < 4.70. In turn, `Cc1ccc(NC(=O)n2nc(Nc3ccc(OCCN4CCCC4)cc3)nc2N)cc1` [compound 37, 5-amino-N-(4-methylphenyl)-3-[4-[2-(pyrrolidin-1-yl)ethoxy]phenylamino]-1H-1,2,4-triazole-1-carboxamide] gave a pIC50 (Table 7, Hela cells, Axl antibody cross-linking stimulation, phospho-Akt chemiluminescence) of 5.00 to 6.00. As to `CC(C)Oc1cccc(C(=O)n2nc(Nc3ccc(OCCN4CCCCC4)cc3)nc2N)c1` [compound 168, 5-amino-1-(3-(iso-propoxy)phenyl)carbonyl-3-[4-[2-(piperidin-1-yl)ethoxy]phenylamino]-1H-1,2,4-triazole], the negative-log IC50 (pIC50) under setting [1] was > 6.00. For the molecule `CC(C)Oc1ccc(Nc2nc(N)nn2C(=O)c2ccc3c(c2)NC(=O)C(C)(C)O3)cc1` [compound 66, 3-amino-1-(2,2-dimethyl-2H-benzo[b][1,4]oxazin-3(4H)-on-6-yl)carbonyl-5-(4-(iso-propoxy)phenyl)amino-1H-1,2,4-triazole], the pIC50 (Table 4, Hela cells, Axl antibody cross-linking stimulation, phospho-Akt chemiluminescence) is 5.00 to 6.00.

The values above are taken from patent US8389557B2, “Triazole derivatives useful as Axl inhibitors” (Rigel Pharmaceuticals, Inc., priority 2005, dated 2013).
